One assay concerns the target NSD2 [1-1365] (Homo sapiens (Human), UniProt O96028). The assay is described as follows: LC-MS/MS-based NSD2 enzymatic assay (SAH production). In kind it is biochemical. The following applies: NSD2 biochemical activity, class symbols; read-out: NSD2 IC50. In outline: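 Full-length NSD2 [1-1365] (8 nM final) with 1 μM SAM and 400 nM mouse-liver nucleosome in Tris pH 8.0 buffer; inhibitor preincubated 20 min with enzyme/SAM before nucleosome addition. Reaction 90 min at room temperature, TFA-quenched; SAH quantified by LC-MS/MS against d4-SAH internal standard and SAH standard curve.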

The test system of assay [1] is cellular H3K36me2 level in thyroid carcinoma cell line CGTH-W-1 (NSD2 E1099K). As to the kind of experiment: H3K36me2 cellular ELISA assay in CGTH-W-1 line. In kind it is cell-based. The following applies: Homo sapiens, CGTH-W-1, 72 h, read-out: H3K36me2 ELISA in CGTH-W-1. Summed up: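 CGTH-W-1 thyroid carcinoma cells (NSD2 E1099K gain-of-function) exposed to compound for 72 hours. Histone-bound plates probed for H3K36me2 and total H3 by chemiluminescent ELISA. Viability checked on a parallel plate with CellTiter-Glo.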

In assay [2] the test system is cellular H3K36me2 level in multiple myeloma cell line KMS11 (t(4;14)+). As to the kind of experiment: H3K36me2 cellular ELISA assay in KMS11-Par line. In kind it is cell-based. Particulars: Homo sapiens, KMS-11; KMS11-Par line (t(4;14)+), 72 hours treatment, ELISA; read-out: H3K36me2 ELISA in KMS11-Par. Summed up: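 KMS11 cells were seeded a day ahead at 1,250 per well in Opti-MEM with B-27/N2, then treated with compound for 72 h. Histones were acid-extracted with 0.4M HCl, and H3K36me2 and total H3 were read by chemiluminescent ELISA. Viability was checked with CellTiter-Glo on a parallel plate in maintenance media.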
For orientation: ELISA stands for enzyme-linked immunosorbent assay.

Assay [3] has the same test system. The assay is described as follows: H3K36me2 cellular FRET assay in KMS11-Par line. Format: cell-based. The following applies: Homo sapiens, KMS-11, KMS11-Par line, cellular H3K36me2 level, FRET; read-out: H3K36me2 FRET in KMS11-Par.

Sequence of NSD2 [1-1365] (O96028 whole entry): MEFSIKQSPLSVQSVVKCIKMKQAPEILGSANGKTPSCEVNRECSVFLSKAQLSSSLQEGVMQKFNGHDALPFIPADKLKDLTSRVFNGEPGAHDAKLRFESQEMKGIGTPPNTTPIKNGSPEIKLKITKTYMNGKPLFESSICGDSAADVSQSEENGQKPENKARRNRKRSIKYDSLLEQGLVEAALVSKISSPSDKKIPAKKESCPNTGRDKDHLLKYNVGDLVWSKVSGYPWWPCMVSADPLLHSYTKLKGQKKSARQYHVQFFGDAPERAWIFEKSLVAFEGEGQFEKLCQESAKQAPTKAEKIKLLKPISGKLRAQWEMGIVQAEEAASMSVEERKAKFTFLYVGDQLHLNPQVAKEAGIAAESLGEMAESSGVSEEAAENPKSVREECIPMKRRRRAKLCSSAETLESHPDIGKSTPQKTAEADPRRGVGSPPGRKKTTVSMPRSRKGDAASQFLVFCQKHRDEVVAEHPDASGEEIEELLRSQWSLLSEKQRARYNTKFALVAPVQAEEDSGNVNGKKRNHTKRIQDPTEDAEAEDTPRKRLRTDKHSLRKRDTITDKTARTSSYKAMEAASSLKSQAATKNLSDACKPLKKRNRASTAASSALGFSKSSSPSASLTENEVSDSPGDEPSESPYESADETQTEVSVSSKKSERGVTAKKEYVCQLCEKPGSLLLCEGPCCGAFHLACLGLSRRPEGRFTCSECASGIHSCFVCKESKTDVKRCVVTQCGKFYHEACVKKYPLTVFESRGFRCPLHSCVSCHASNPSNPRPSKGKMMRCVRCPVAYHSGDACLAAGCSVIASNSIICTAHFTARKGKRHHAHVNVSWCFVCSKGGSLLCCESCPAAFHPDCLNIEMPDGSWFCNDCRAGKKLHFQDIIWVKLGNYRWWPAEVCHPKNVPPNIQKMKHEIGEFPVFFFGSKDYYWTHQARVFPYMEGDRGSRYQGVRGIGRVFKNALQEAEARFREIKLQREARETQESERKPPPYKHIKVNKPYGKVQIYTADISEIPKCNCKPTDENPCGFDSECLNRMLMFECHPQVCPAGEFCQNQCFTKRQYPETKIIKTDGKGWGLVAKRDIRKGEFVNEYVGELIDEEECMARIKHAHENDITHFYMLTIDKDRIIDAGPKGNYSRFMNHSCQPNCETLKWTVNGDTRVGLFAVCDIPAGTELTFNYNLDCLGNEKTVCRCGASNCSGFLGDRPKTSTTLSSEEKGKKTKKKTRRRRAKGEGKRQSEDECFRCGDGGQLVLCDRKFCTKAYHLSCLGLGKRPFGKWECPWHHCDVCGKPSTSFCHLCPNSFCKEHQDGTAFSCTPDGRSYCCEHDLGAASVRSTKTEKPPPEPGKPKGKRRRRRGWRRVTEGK

For `Nc1ncnc2c1ncn2Cc1cc(-c2ccc(F)c(F)c2)ncc1N1CCC[C@](N)(COC2CCC2)C1` [Example 30, (R)-9-((5-(3-amino-3-(cyclobutoxymethyl)piperidin-1-yl)-2-(3,4-difluorophenyl)pyridin-4-yl)methyl)-9H-purin-6-amine], the IC50 was 1 to 10 nM on NSD2 [1-1365], 659 nM in assay [1], 2030 nM in assay [2] and 569 nM in assay [3].

`COc1ccc(-c2cc(Cn3cnc4c(N)ncnc43)c(N3CCC[C@](N)(COC4CCC4)C3)cn2)cc1F` [Example 32, (R)-9-((5-(3-amino-3-(cyclobutoxymethyl)piperidin-1-yl)-2-(3-fluoro-4-methoxyphenyl)pyridin-4-yl)methyl)-9H-purin-6-amine]: the IC50 on NSD2 [1-1365] is 1 to 10 nM; in assay [1], 196 nM; in assay [2], 728 nM; in assay [3], 270 nM.

Take `COc1ccc(-c2cc(Cn3cnc4c(N)ncnc43)c(N3CCC[C@](N)(COC(F)F)C3)cn2)cc1F` [Example 42, (R)-9-((5-(3-amino-3-((difluoromethoxy)methyl)piperidin-1-yl)-2-(3-fluoro-4-methoxyphenyl)pyridin-4-yl)methyl)-9H-purin-6-amine]: the IC50 on NSD2 [1-1365] is 10 to 1000 nM; in assay [1], 789 nM; in assay [2], 10700 nM; in assay [3], 1230 nM.

Consider `Nc1ncnc2c1ncn2Cc1cc(-c2ccc(F)c(F)c2)ncc1N1CCC[C@](N)(CC(F)F)C1` [Example 47, (S)-9-((5-(3-amino-3-(2,2-difluoroethyl)piperidin-1-yl)-2-(3,4-difluorophenyl)pyridin-4-yl)methyl)-9H-purin-6-amine], for which the IC50 at NSD2 [1-1365] is 10 to 1000 nM; in assay [1], 377 nM; in assay [2], 1540 nM; in assay [3], 1180 nM.

On to `Nc1ncnc2c1ncn2Cc1cc(-c2ccc(F)c(F)c2)ncc1N1CCC[C@](N)(Cc2ncco2)C1` [Example 52, (S)-9-((5-(3-amino-3-(oxazol-2-ylmethyl)piperidin-1-yl)-2-(3,4-difluorophenyl)pyridin-4-yl)methyl)-9H-purin-6-amine], for which the IC50 at NSD2 [1-1365] was 1 to 10 nM; in assay [1], 541 nM; in assay [2], 1320 nM; in assay [3], 1200 nM.

Turning to `COc1ccc(-c2cc(Cn3cnc4c(N)ncnc43)c(N3CCC[C@](N)([C@H](C)OC)C3)cn2)cc1F` [Example 93, 9-((5-((R)-3-amino-3-((S)-1-methoxyethyl)piperidin-1-yl)-2-(3-fluoro-4-methoxyphenyl)pyridin-4-yl)methyl)-9H-purin-6-amine], the IC50 at NSD2 [1-1365] is 10 to 1000 nM; in assay [1], 3210 nM; in assay [2] it was 3970 nM; in assay [3], 1390 nM.

As for `COc1ccc(-c2cc(Cn3cnc4c(N)ncnc43)c(N3CCC[C@](N)([C@@H](C)OC)C3)cn2)cc1F` [Example 94, 9-((5-((R)-3-amino-3-((R)-1-methoxyethyl)piperidin-1-yl)-2-(3-fluoro-4-methoxyphenyl)pyridin-4-yl)methyl)-9H-purin-6-amine], the IC50 on NSD2 [1-1365] is 10 to 1000 nM; in assay [1], 1090 nM; in assay [2], 1200 nM; in assay [3], 3040 nM.

Regarding `CO[C@@H](C)[C@@]1(N)CCCN(c2cnc(-c3ccc(F)c(F)c3)cc2Cn2cnc3c(N)ncnc32)C1` [Example 95, 9-((5-((R)-3-amino-3-((S)-1-methoxyethyl)piperidin-1-yl)-2-(3,4-difluorophenyl)pyridin-4-yl)methyl)-9H-purin-6-amine], the IC50 at NSD2 [1-1365] was 10 to 1000 nM; in assay [1], 1650 nM; in assay [2], 3030 nM; in assay [3], 1820 nM.

For `CO[C@H](C)[C@@]1(N)CCCN(c2cnc(-c3ccc(F)c(F)c3)cc2Cn2cnc3c(N)ncnc32)C1` [Example 97, 9-((5-((R)-3-amino-3-((R)-1-methoxyethyl)piperidin-1-yl)-2-(3,4-difluorophenyl)pyridin-4-yl)methyl)-9H-purin-6-amine], the IC50 was 10 to 1000 nM on NSD2 [1-1365], 1160 nM in assay [1], 1240 nM in assay [2] and 1500 nM in assay [3].

Values taken from patent US11420970B1 (NOVARTIS AG, priority 2019, dated 2022).
